Here are results for 17 molecules from patent publication US20100216779A1 (GLAXOSMITHKLINE LLC, priority 2007, published 2010).

Bounds are passed on as bounds.

Type in all cases: cell-based
Test [1] deals with COLO205 (colon). The test is described as follows: Inhibition of cell proliferation, CellTiter-Glo, COLO205. Particulars: Homo sapiens, COLO 205, 72 h. The essentials: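 Exponentially growing COLO205 cells in medium with 10% FBS were plated below 2000 cells/well at 37 °C, 5% CO2. Untreated wells served as controls.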
Background: Cellular ATP, detected with luciferase, serves as a proxy for viable cell number.

Test [2] deals with NCI-H929 (multiple myeloma). Description: Inhibition of cell proliferation, CellTiter-Glo, NCI-H929. Particulars: Homo sapiens, 72 h. As for the experimental part:
C. Inhibition of Cell Proliferation
Cell proliferation was measured by either CellTiter-Glo (measures cellular ATP level as a surrogate for total cell number) or by InCell analyzer (counts number of nuclei as a measure of cell number). For CellTiter-Glo assay, exponentially growing cell lines of different tumor origins, cultured in appropriate media containing 10% fetal bovine serum at 37° C. in a 5% CO2 incubator, were plated at low density (less than 2000 cells/well) in 96-well plates. Twenty four hours post-plating, cells were treated with different concentrations of test compounds ranging from 30 uM to 1.5 nM. Several wells were left untreated as a control. Seventy two hours post-treatment, cell numbers were determined using 50-100 ul per well of CellTiter-Glo (Promega #G7573). Plates were incubated at 37° C. for 30 minutes and the chemiluminescent signal was read on the Victor V or Envison 2100 reader. […]

Test [3] addresses T1, human IGF-1R (NIH-3T3 cells over expressing human IGF-1R) (Homo sapiens, UniProt P08069).
T1 construct: expressed in transfected cells; host or cells: NIH-3T3 (mouse fibroblasts)
The test is described as follows: IGF-1R cellular autophosphorylation (DELFIA). Particulars: IGF-1 stimulated. In outline: (§1)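 Read-out: DELFIA on lysates, receptor-specific capture antibody plus europium-labelled anti-phosphotyrosine, reported as % of IGF-1- or insulin-stimulated signal. Transfected NIH-3T3 cells got compound (30 uM–1.5 nM, 2 h) before a 15 min ligand pulse: IGF-1 30 ng/mL for IGF-1R, insulin 3 ug/mL for IR.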

Test [4] deals with T2, IR (NIH-3T3 cells over expressing human IGF-1R or IR) (Homo sapiens, UniProt P06213).
T2 construct: expressed in transfected cells; host or cells: NIH-3T3 (mouse fibroblasts)
The test is described as follows: IR cellular autophosphorylation (DELFIA). Particulars: NIH-3T3 cells over expressing IR, insulin stimulated. The essentials:
as §1

T1 sequence (P08069 31-1367): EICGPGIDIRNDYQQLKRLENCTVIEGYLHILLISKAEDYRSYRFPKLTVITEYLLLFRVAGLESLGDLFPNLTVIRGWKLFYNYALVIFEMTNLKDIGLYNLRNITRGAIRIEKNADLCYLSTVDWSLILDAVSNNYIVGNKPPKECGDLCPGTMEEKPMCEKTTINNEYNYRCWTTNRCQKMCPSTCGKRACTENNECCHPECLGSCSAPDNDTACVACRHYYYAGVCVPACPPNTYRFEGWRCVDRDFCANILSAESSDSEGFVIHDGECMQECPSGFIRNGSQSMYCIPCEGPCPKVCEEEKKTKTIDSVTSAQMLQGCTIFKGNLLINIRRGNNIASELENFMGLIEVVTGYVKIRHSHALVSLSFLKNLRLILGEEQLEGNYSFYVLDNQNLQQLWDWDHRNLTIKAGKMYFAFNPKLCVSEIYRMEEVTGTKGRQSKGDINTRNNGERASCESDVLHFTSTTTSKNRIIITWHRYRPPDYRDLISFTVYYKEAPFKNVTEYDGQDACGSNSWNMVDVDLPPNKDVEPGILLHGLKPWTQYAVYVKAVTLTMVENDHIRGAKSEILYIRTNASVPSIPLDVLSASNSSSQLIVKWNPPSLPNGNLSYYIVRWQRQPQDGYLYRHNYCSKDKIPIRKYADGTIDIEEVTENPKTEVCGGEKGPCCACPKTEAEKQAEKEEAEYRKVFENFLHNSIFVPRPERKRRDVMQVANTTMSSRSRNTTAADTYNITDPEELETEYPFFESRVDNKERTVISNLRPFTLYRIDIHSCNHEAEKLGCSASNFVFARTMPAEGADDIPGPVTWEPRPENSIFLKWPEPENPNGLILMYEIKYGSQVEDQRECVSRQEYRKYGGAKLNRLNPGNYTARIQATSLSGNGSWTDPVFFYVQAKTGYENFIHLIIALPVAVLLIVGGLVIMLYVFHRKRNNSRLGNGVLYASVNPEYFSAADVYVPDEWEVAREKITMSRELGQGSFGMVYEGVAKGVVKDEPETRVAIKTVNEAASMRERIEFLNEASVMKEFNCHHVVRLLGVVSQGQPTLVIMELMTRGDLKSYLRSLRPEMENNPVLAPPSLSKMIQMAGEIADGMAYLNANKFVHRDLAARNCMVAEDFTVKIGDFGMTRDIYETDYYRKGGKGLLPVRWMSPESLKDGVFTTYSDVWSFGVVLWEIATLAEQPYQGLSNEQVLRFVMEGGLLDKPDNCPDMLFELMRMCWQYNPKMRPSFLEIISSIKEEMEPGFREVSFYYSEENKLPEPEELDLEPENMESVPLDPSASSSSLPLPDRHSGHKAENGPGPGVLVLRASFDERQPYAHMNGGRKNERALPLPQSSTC
T2 sequence (P06213 28-1382): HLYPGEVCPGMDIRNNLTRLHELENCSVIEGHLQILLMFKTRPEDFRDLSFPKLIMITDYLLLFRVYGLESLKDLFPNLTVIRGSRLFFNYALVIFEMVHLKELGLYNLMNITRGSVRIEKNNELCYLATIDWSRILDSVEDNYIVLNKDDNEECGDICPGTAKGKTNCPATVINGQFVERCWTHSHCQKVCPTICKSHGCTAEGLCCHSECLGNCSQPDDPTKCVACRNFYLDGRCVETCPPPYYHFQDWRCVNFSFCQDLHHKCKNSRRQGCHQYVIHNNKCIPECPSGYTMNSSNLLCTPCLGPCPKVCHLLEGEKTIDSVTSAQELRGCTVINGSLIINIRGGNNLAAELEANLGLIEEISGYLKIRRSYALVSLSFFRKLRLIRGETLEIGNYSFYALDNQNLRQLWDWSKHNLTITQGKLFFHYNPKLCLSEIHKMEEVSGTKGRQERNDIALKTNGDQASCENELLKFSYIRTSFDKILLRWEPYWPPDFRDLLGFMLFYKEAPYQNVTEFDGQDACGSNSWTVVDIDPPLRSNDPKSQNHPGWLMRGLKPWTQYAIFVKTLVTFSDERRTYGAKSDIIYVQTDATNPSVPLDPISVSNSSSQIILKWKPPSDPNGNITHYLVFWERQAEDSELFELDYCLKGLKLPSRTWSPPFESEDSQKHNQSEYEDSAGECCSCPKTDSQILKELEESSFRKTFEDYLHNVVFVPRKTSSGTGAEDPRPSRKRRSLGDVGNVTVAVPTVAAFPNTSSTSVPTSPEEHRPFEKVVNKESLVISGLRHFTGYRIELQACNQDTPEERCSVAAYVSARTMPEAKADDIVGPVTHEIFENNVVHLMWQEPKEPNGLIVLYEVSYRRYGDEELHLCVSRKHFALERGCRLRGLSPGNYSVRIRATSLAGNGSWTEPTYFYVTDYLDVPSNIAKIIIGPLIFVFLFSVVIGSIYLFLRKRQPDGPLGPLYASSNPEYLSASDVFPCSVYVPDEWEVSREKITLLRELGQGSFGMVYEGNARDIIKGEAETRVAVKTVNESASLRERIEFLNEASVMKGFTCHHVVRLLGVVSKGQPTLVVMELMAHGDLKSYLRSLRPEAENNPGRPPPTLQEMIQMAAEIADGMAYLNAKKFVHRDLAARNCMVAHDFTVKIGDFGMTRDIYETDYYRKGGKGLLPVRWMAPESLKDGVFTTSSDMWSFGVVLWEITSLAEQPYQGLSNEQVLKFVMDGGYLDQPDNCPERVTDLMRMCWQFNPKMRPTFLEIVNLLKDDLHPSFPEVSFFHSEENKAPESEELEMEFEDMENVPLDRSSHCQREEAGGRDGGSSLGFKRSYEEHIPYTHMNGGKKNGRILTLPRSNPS

`CCOc1ccc(-c2nc3ccccn3c2-c2ccnc(Nc3ccc(C4CCN(CCS(C)(=O)=O)CC4)cc3OC)n2)cc1C(=O)Nc1c(F)cccc1F` [Example 182, N-(2,6-difluorophenyl)-2-(ethyloxy)-5-(3-{2-[(2-(methyloxy)-4-{1-[2-(methylsulfonyl)ethyl]-4-piperidinyl}phenyl)amino]-4-pyrimidinyl}imidazo[1,2-a]pyridin-2-yl)benzamide]: the concentration for half-maximal inhibition (IC50) in test [1] and in test [2] was less than 0.25 µM in each case.

With `CCOc1cc(N2CCC(N3CCN(S(C)(=O)=O)CC3)CC2)c(CC)cc1Nc1nccc(-c2c(-c3ccc(OCC)c(C(=O)Nc4c(F)cccc4F)c3)nc3ccccn23)n1` [Example 205, N-(2,6-difluorophenyl)-5-(3-{2-[(5-ethyl-2-(ethyloxy)-4-{4-[4-(methylsulfonyl)-1-piperazinyl]-1-piperidinyl}phenyl)amino]-4-pyrimidinyl}imidazo[1,2-a]pyridin-2-yl)-2-(ethyloxy)benzamide], the IC50 in test [1] and in test [2] was less than 0.25 µM throughout.

`CCOc1cc(N2CCN(CCS(C)(=O)=O)CC2)c(C)cc1Nc1nccc(-c2c(-c3ccc(OC(C)C)c(C(=O)Nc4c(F)cccc4F)c3)nc3ccccn23)n1` [Example 249, N-(2,6-difluorophenyl)-5-(3-{2-[(2-(ethyloxy)-5-methyl-4-{4-[2-(methylsulfonyl)ethyl]-1-piperazinyl}phenyl)amino]-4-pyrimidinyl}imidazo[1,2-a]pyridin-2-yl)-2-[(1-methylethyl)oxy]benzamide]: the IC50 in test [1] and in test [2] was less than 0.25 µM throughout.

`CCOc1cc(N2CCC(CCS(C)(=O)=O)CC2)c(C)cc1Nc1nccc(-c2c(-c3ccc(OC)c(C(=O)Nc4c(F)cccc4F)c3)nc3cc(F)ccn23)n1` [Example 218, N-(2,6-difluorophenyl)-5-(3-{2-[(2-(ethyloxy)-5-methyl-4-{4-[2-(methylsulfonyl)ethyl]-1-piperidinyl}phenyl)amino]-4-pyrimidinyl}-7-fluoroimidazo[1,2-a]pyridin-2-yl)-2-(methyloxy)benzamide]: the IC50 (usually the concentration needed to halve the response being measured) in test [1] is 0.25 to 1 µM; in test [2] it was less than 0.25 µM.

For the molecule `CCOc1cc(N2CCN(CCS(C)(=O)=O)CC2)c(C)cc1Nc1nccc(-c2c(-c3ccc(OC)c(C(=O)Nc4c(F)cccc4F)c3)nc3ccccn23)n1` [Example 247, N-(2,6-difluorophenyl)-5-(3-{2-[(2-(ethyloxy)-5-methyl-4-[4-[2-(methylsulfonyl)ethyl]-1-piperazinyl}phenyl)amino]-4-pyrimidinyl}imidazo[1,2-a]pyridin-2-yl)-2-(methyloxy)benzamide], the 50% inhibitory concentration (IC50) in test [1] and in test [2] was less than 0.25 µM throughout.

As to `COc1cc(N2CCC(N3CCCCC3)CC2)ccc1Nc1nccc(-c2c(-c3cccc(C(=O)Nc4c(F)cccc4F)c3)nc3cc(C(F)(F)F)ccn23)n1` [Example 191, 3-[3-(2-{[4-(1,4′-bipiperidin-1′-yl)-2-(methyloxy)phenyl]amino}-4-pyrimidinyl)-7-(trifluoromethyl)imidazo[1,2-a]pyridin-2-yl]-N-(2,6-difluorophenyl)benzamide], the IC50 in test [1] and in test [2] was more than 1 µM in each case.

Turning to `COc1cc(N2CCC(N3CCN(CCS(C)(=O)=O)CC3)CC2)c(C)cc1Nc1nccc(-c2c(-c3cccc(C(=O)Nc4c(F)cccc4F)c3)nc3ccccn23)n1` [Example 115, N-(2,6-difluorophenyl)-3-[3-(2-{[5-methyl-2-(methyloxy)-4-(4-{4-[2-(methylsulfonyl)ethyl]-1-piperazinyl}-1-piperidinyl)phenyl]amino]-4-pyrimidinyl)imidazo[1,2-a]pyridin-2-yl]benzamide], the IC50 in test [1] was 0.25 to 1 µM; in test [2] it was less than 0.25 µM.

Regarding `CCOc1cc(C2CCN(CCS(C)(=O)=O)CC2)ccc1Nc1nccc(-c2c(-c3ccc(OC(C)C)c(C(=O)Nc4c(F)cccc4F)c3)nc3ccccn23)n1` [Example 186, N-(2,6-difluorophenyl)-5-(3-{2-[(2-(ethyloxy)-4-{1-[2-(methylsulfonyl)ethyl]-4-piperidinyl}phenyl)amino]-4-pyrimidinyl}imidazo[1,2-a]pyridin-2-yl)-2-[(1-methylethyl)oxy]benzamide], the IC50 in test [1] and in test [2] was less than 0.25 µM throughout.

Consider `COc1cc(N2CCC(N3CCCCC3)CC2)ccc1Nc1nccc(-c2c(-c3cccc(C(=O)Nc4ccc(Cl)cc4F)c3)nc3ccccn23)n1` [Example 45, 3-[3-(2-{[4-(1,4′-bipiperidin-1′-yl)-2-(methyloxy)phenyl]amino}-4-pirimidinyl)imidazo[1,2-a]pyridin-2-yl]-N-(4-chloro-2-fluorophenyl)benzamide], for which the figures for the IC50 in test [1], in test [3] and in test [4] were 0.25 to 1 µM, less than 0.1 µM and 0.1 to 0.5 µM, respectively.

Consider `COc1cc(N2CCC(N3C[C@@H]4C[C@H]3CN4CCF)CC2)ccc1Nc1nccc(-c2c(-c3cccc(C(=O)Nc4c(F)cccc4F)c3)nc3ccccn23)n1` [Example 86, N-(2,6-difluorophenyl)-3-[3-(2-{[4-{4-[(1 S,4S)-5-(2-fluoroethyl)-2,5-diazabicyclo-[2.2.1]hept-2-yl]-1-piperidinyl}-2-(methyloxy)phenyl]amino}-4-pyrimidinyl)imidazo[1,2-a]pyridin-2-yl]benzamide], for which the half-inhibitory concentration (IC50) in test [1] is 0.25 to 1 µM; in test [3] it was less than 0.1 µM; in test [4] it was less than 0.1 µM.

Take `CCOc1cc(N2CCC(N3CCCCC3)CC2)ccc1Nc1nccc(-c2c(-c3cccc(C(=O)Nc4c(F)cccc4F)c3)nc3ccccn23)n1` [Example 34, 3-[3-(2-{[4-(1,4′-bipiperidin-1′-yl)-2-(ethyloxy)phenyl]amino}-4-pyrimidinyl)imidazo[1,2-a]pyridin-2-yl]-N-(2,6-difluorophenyl)benzamide]: the IC50 is 0.25 to 1 µM in test [1], less than 0.1 µM in test [3] and 0.1 to 0.5 µM in test [4].

Take `COc1cc(CCCN2CCCCC2)ccc1Nc1nccc(-c2c(-c3ccc(OC)c(C(=O)Nc4c(F)cccc4F)c3)nc3ccccn23)n1` [Example 140, N-(2,6-difluorophenyl)-2-(methyloxy)-5-{3-[2-({2-(methyloxy)-4-[3-(1-piperidinyl)propyl]phenyl}amino)-4-pyrimidinyl]imidazo[1,2-a]pyridin-2-yl}benzamide]: the results for the IC50 in test [1], in test [3] and in test [4] were 0.25 to 1 µM, less than 0.1 µM and less than 0.1 µM, respectively.

With `COc1cc(N2CCC[C@@H](O)C2)ccc1Nc1nccc(-c2c(-c3cccc(C(=O)Nc4c(F)cccc4F)c3)nc3ccccn23)n1` [Example 170, N-(2,6-difluorophenyl)-3-[3-(2-{[4-[(3R)-3-hydroxy-1-piperidinyl]-2-(methyloxy)phenyl]amino}-4-pyrimidinyl)imidazo[1,2-a]pyridin-2-yl]benzamide], the half-inhibitory concentration (IC50) was 0.25 to 1 µM in test [1], less than 0.1 µM in test [3] and 0.1 to 0.5 µM in test [4].

With `COc1cc(N2CCC(N3CCSCC3)CC2)ccc1Nc1nccc(-c2c(-c3cccc(C(=O)Nc4c(F)cccc4F)c3)nc3ccccn23)n1` [Example 85, N-(2,6-difluorophenyl)-3-{3-[2-({2-(methyloxy)-4-[4-(4-thiomomholinyl)-1-piperidinyl]phenyl}amino)-4-pyrimidinyl]imidazo[1,2-a]pyridin-2-yl}benzamide], the IC50 in test [1] lay within 0.25 to 1 µM; in test [3] it was 0.1 to 0.5 µM; in test [4], 0.1 to 0.5 µM.

Turning to `COc1cc(N2CCC(O)CC2)ccc1Nc1nccc(-c2c(-c3cccc(C(=O)Nc4c(F)cccc4F)c3)nc3ccccn23)n1` [Example 73, N-(2,6-difluorophenyl)-3-[3-(2-{[4-(4-hydroxy-1-piperidinyl)-2-(methyloxy)phenyl]amino}-4-pyrimidinyl)imidazo[1,2-a]pyridin-2-yl]benzamide], the half-inhibitory concentration (IC50) in test [1] is 0.25 to 1 µM; in test [3], less than 0.1 µM; in test [4], 0.1 to 0.5 µM.

As to `COc1ccc(-c2nc3cc(C)ccn3c2-c2ccnc(Nc3cccc(OCCN(C)C)c3)n2)cc1C(=O)Nc1c(F)cccc1F` [Example 2, N-(2,6-difluorophenyl)-5-(3-{2-[(3-{[2-(dimethylamino)ethyl]oxy}phenyl)amino]-4-pyrimidinyl}-7-methylimidazo[1,2-a]pyridin-2-yl)-2-(methyloxy)benzamide], the results for the IC50 in test [1], in test [3] and in test [4] were 0.25 to 1 µM, more than 0.5 µM and more than 0.5 µM, respectively.

As to `COc1cc(N2CCC(O)CC2)ccc1Nc1nccc(-c2c(-c3ccc(OC)c(C(=O)Nc4c(F)cccc4F)c3)nc3ccccn23)n1` [Example 122, N-(2,6-difluorophenyl)-5-[3-(2-{[4-(4-hydroxy-1-piperidinyl)-2-(methyloxy)phenyl]amino}-4-pyrimidinyl)imidazo[1,2-a]pyridin-2-yl]-2-(methyloxy)benzamide], the concentration for half-maximal inhibition (IC50) was less than 0.25 µM in test [1], less than 0.1 µM in test [3] and less than 0.1 µM in test [4].
